# Columns and labels:
# T47D (ER(+)) cells = experiment: Cell proliferation assay (sulforhodamine B); type: cell-based, human; conditions: 500 μM δ-TP or δ-TT; 30 μM lovastatin; 6-day period
# Method: MCF-7 (ER(+)), T47D (ER(+)), and MDA-MB-231 (ER(−)) cell lines were from ATCC. Cell lines were maintained at 37°C in a humidified incubator in a 5% CO2-enriched atmosphere in T-75 flasks. […] Cells were grown for 24 h before treatment in phenol red-free medium containing 5% DCC-FCS. Cells were seeded into 96-well plates at 2000 cells/well. Treatment media (150 μl/well) was added on the following day and replaced at 48-h intervals until the end of the experiment. Cell density was measured via the sulforhodamine B method ([43]) after 0, 2, 4, 6, and 8 days. The absorbance of SRB was measured directly at 490 nm in the 96-well plates using a multiskan® multisoft reader from Labsystem.
# ERα = biological target: T1, ERα (Homo sapiens, UniProt P03372); experiment: ERE-luciferase reporter assay in HELN-ERα cells; type: cell-based; set-up: endogenous in cells; host or cells: MCF-7; conditions: 500 μM
# T1 sequence (P03372 1-595): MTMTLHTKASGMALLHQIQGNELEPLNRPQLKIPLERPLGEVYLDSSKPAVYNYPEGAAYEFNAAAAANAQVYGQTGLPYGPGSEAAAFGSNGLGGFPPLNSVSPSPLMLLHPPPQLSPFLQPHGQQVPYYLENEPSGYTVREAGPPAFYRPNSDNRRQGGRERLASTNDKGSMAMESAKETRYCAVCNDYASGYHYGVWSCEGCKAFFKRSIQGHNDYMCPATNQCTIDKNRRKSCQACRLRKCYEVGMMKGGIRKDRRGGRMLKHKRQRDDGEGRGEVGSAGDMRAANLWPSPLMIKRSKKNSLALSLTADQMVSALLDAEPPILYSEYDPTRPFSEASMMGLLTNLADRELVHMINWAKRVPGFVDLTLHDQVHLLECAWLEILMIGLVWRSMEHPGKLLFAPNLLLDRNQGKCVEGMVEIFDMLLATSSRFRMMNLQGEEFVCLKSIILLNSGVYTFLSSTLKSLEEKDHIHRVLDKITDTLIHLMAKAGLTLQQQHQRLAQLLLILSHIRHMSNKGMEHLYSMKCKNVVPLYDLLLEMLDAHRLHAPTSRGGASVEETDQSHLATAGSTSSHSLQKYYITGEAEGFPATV
# Description: (§1) MELN cells were established by transfecting ER(+) MCF-7 cells with the ERE-β-globin-tk-Luc-SV-Neo plasmid ([36]). HELN cells were generated by transfection of ER(−) HeLa cells with this plasmid. The HELN-ERα, HELN-ERβ, HELN-ΔAB-ERα, and HELN-ΔAB-ERβ cell lines then underwent a second transfection with the corresponding pSG5-puro plasmids (pSG5-ERα-puro, pSG5-ERβ-puro, pSG5-ΔAB-ERα-puro, and pSG5-ΔAB-ERβ-puro, respectively) and expressed wild-type or mutated ERα or ERβ ([39], [40]). […] Luciferase activity was measured using the luciferase assay reagent (Promega), according to the manufacturer’s instructions. Protein concentrations were measured using the Bradford technique ([41]) to normalize the luciferase activity data. For each condition, average luciferase activity was calculated from the data of three independent wells.
# (§2) Figure 3 Measurement of estrogenicity of tocols in vitro. […] MCF-7 extracts were analyzed for the presence of ERα by western blotting using GAPDH as a control. […] The ratio of ERα to GAPDH levels in each experiment was determined densitometrically and normalized to control value (taken to be 1). […] The relative expression of TGFα, PR, and Ps2 (TFF1) after 16 h was analyzed by quantitative RT-PCR. […]
# ERβ [1] = biological target: T2, ERβ (Homo sapiens, UniProt Q92731); experiment: Estrogen receptor-binding assay, competition with [3H]-17β-estradiol; set-up: expressed in transfected cells; host or cells: Cos-7; conditions: extracts of cos-7 cells expressing human ERβ; 2 nM [3H]-E2; tocols 1 μM to 1 mM; N.M. = not measurable
# T2 sequence (Q92731 whole entry): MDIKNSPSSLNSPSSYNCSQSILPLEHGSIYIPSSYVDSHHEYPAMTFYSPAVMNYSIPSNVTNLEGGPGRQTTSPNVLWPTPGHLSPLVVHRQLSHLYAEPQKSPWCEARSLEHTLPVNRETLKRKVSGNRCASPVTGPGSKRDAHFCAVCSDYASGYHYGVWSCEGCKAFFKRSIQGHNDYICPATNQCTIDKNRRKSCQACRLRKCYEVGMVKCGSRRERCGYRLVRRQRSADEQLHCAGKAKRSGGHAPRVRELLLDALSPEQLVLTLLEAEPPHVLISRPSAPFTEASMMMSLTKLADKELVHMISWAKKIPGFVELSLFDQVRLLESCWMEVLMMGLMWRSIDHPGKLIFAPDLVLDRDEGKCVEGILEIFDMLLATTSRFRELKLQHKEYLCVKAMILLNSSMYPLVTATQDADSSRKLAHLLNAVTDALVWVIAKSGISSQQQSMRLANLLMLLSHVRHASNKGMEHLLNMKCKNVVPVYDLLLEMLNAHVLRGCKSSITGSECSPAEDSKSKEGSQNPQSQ
# Ps2 (TFF1) = experiment: Quantitative RT-PCR of endogenous E2-regulated gene in MCF-7 cells; type: cell-based, human; conditions: 500 μM, 16 h
# Method: (§3) Figure 3 Measurement of estrogenicity of tocols in vitro. (A) Dose–response curve of the effect of tocols on MCF-7 cells stably transfected with the ERE-β-globin-tk-Luc plasmid (MELN cells). […] Data shown are the mean values ± SEM from three independent experiments. (C) δ-TP or δ-TT stabilized ER-α in MCF-7 cells. […] MCF-7 extracts were analyzed for the presence of ERα by western blotting using GAPDH as a control. […] The western blot shown is representative of three independent experiments. […] (D) Effect of δ-tocols on estrogen response element-dependent luciferase activity in HELN cells, which are HELA cells transfected with either fully functional ERα or ERβ or their mutated versions containing a deletion the AB domain (ΔAB). […] Data shown are the mean values ± SEM from three independent experiments. (E) δ-Tocols modulate the induction of endogenous genes under the control of ER. […] Cells were treated with 500 μM δ-tocols in the presence or in the absence of ICI. The relative expression of TGFα, PR, and Ps2 (TFF1) after 16 h was analyzed by quantitative RT-PCR. Data shown are the mean values ± SEM from three independent experiments.
# PR = experiment: as above; type: cell-based, human; conditions: 500 μM, 16 h
# Method: as §3
# TGFα = experiment: as above; type: cell-based, human; conditions: 500 μM, 16 h
# Method: as §3
# ERβ [2] = biological target: T2, ERβ; conditions: HELN-ERβ cells; 500 μM
# Description: as §1, §2
IC50 (ERβ [1]),SMILES,effect on T47D cell proliferation (T47D (ER(+)) cells),ER-dependent luciferase activity through ERα (ERα),transcription of Ps2 (fold increase) (Ps2 (TFF1)),transcription of PR (fold increase) (PR),transcription of TGFα (fold increase) (TGFα),ER-dependent luciferase activity through ERβ (ERβ [2])
–,"Cc1cc(O)cc2c1OC(C)(CCCC(C)CCCC(C)CCCC(C)C)CC2 (stereo not drawn) [δ-TP, δ-tocopherol]",significant stimulation,activate ER-dependent luciferase activity,–,–,–,–
91 ± 7 µM,"CC(C)=CCC/C(C)=C/CC/C(C)=C/CC[C@]1(C)CCc2cc(O)cc(C)c2O1 [δ-TT, δ-tocotrienol]",inhibited the proliferation,activate ER-dependent luciferase activity,twofold,1.6 fold,1.1 fold,activate ER-dependent luciferase activity
